Measured values: PMC6687188, “Novel lactate dehydrogenase inhibitors with in vivo efficacy against Cryptosporidium parvum” (PLoS Pathogens, 2019)
Residues, ends and D or L forms follow the SMILES beside them. *: point of attachment. CH2Cl = ClC*

Target: recombinant CpLDH protein (Cryptosporidium parvum, UniProt Q9GT92, F198L/K295E/R251K)

Row | Compound | MEAN CpLDH INHIBITION (%)
1 | OCC1OC(n2cnc3c(=S)nc[nH]c32)C(O)C1O (stereo not drawn) [NSC406021] | -17.89%
2 | COc1ccc(C[C@@H]2NC[C@@H](O)[C@@H]2OC(C)=O)cc1.Cl [NSC147340] | -13.68%
3 | COc1ccc2nc(C)cc(NCCCCCCCCCNc3cc(C)nc4ccc(OC)cc34)c2c1 [NSC10010] | -19.54%
4 | CCSC(=O)N1c2ccc(OC)cc2C=CC1C#N (stereo not drawn) [NSC165897] | -41.74%
5 | CN1CCCC2C(c3ccccc3)C(C3=NCCCC3)C(c3ccccc3)CC21.Cl (stereo not drawn) [NSC109444] | -58.72%
6 | CN(NC1=NCCO1)c1ccc2ccccc2c1 [NSC664286] | -26.92%
7 | COC(=O)NC1C(C)OC(OC2C/C=C(/C)C3C=CC4C(OC5CC(OC6CCC(OC7CC(O)C(OC8CCC(O)C(C)O8)C(C)O7)C(C)O6)C(OC(C)=O)C(C)O5)C(C)CC(C)C4C3(C)/C(O)=C3/C(=O)OC4(CC(C=O)=CC(O)C4/C=C\2C)C3=O)CC1(C)[N+](=O)[O-] (stereo not drawn) [NSC333856] | -2.71%
8 | NC1=C(Br)C(=O)c2ncccc2C1=O [NSC105808] | -67.00%
9 | CCP(CC)CC.[Au+].[Cl-] [NSC313981] | -27.27%
10 | S=C1Nc2cnc3ccccc3c2SC1c1ccccc1 (stereo not drawn) [NSC667467] | -21.66%
11 | CC1(C)CCC[C@]2(C)C3=C(CC[C@@H]12)C(=O)OC3 [NSC375294] | -39.63%
12 | C[C@@H]1C[C@H]2CC[C@H](O2)[C@H](C)C(=O)O[C@@H](C)C[C@@H]2CC[C@@H](O2)[C@@H](C)C(=O)O[C@H](C)C[C@H]2CC[C@H](O2)[C@H](C)C(=O)O[C@@H](C)C[C@@H]2CC[C@@H](O2)[C@@H](C)C(=O)O1 [NSC52141] | -100.84%
13 | CN(C)C[C@H]1CC[C@@H](CN(C)C)C1=O.Cl [NSC640391] | -1.88%
14 | CC(=O)[O-].Cc1c2cc[n+](CCN3CCCCC3)cc2c(C)c2c1[nH]c1ccc(O)cc12 [NSC311153] | -30.69%
15 | Cc1ccc(Nc2nc(C)c(C(/C=C/c3ccc(/C=C/C(=N\NC(=O)C[n+]4ccccc4)c4sc(Nc5ccc(C)cc5[N+](=O)[O-])nc4C)cc3)=N/NC(=O)C[n+]3ccccc3)s2)c([N+](=O)[O-])c1.Cl [NSC640342] | -89.53%
16 | O=c1cccccc1O [NSC89303] | -7.26%
17 | CCn1c(O)c(C=Nc2ccccc2)s/c1=N/Nc1ncc(CC(=O)Nc2ccccc2C)s1 [NSC658350] | -19.59%
18 | Nc1nc2n[nH]nc2c(=O)[nH]1 [NSC749] | -18.77%
19 | COC(=O)C1(C)CCCC2(C)C3CCC4CC3(C=C4CO)CCC12 (stereo not drawn) [NSC360861] | -29.11%
20 | CC(=O)O[C@H]1C[C@H](O[C@H]2[C@@H](O)C[C@H](O[C@H]3[C@@H](O)C[C@H](O[C@H]4CC[C@@]5(C)[C@H](CC[C@@H]6[C@@H]5CC[C@]5(C)[C@@H](C7=CC(=O)OC7)CC[C@]65O)C4)O[C@@H]3C)O[C@@H]2C)O[C@H](C)[C@H]1O[C@@H]1O[C@H](CO)[C@@H](O)[C@H](O)[C@H]1O [NSC7532] | -151.91%
21 | CCOC(=O)CCc1c(C)c2c(O)cc(O)cc2oc1=O [NSC622616] | -39.56%
22 | CC(C)[Si]1(C(C)C)OCC2OC(n3cnc4c(N)ncnc43)C(N)C2O[Si](C(C)C)(C(C)C)O1 (stereo not drawn) [NSC687330] | -17.98%
23 | CC1=C/C(=C2/N=C(N(C)C)SS2)C(C)=N1.[O-][Cl+3]([O-])([O-])O [NSC622690] | -0.50%
24 | CCCCCCCCCCCCCCCCOCC(O)CO (stereo not drawn) [NSC59269] | 0.04%

Row | Compound | MEAN CpLDH INHIBITION (%)
25 | CC(=O)NC(CC(C)C)C(=O)NC(Cc1ccccc1)C(=O)CCl (stereo not drawn) [NSC173905] (Ac-Leu-Phe-CH2Cl; configuration not given here) | -39.37%
26 | Nc1nc2c(ncn2[C@@H]2O[C@H](CO)[C@@H](O)[C@H]2O)c(=O)[nH]1 [NSC19994] | -14.24%
27 | Cc1nc(-n2nc(-c3ccccc3)cc2-c2ccccc2)sc1C(=O)/C=C/c1ccc(Cl)c(Cl)c1 [NSC640584] | -6.68%
28 | O=[N+]([O-])c1ccc(N=Nc2c(O)[nH]c3ccccc23)c([N+](=O)[O-])c1 [NSC4810] | -33.40%
29 | CCC(C#N)(c1ccccc1)N(CCc1ccccc1)C(=O)c1ccccc1 (stereo not drawn) [NSC681741] | -7.66%
30 | Nc1ncnc2c1nnn2[C@@H]1O[C@H](CO)[C@@H](O)[C@H]1O [NSC72961] | -2.40%
31 | O=S(=O)(c1cccc(N=C=S)c1)c1cccc(N=C=S)c1 [NSC140911] | -0.44%
32 | OCc1ccc(-c2ccc(-c3ccc(CO)s3)o2)s1 [NSC652287] | -15.92%
33 | CC(C)c1ccc(O)c(=O)cc1 [NSC18805] | -40.28%
34 | C=C1[C@@H](C)[C@H]2[C@H](Cc3ccccc3)NC(=O)C23[C@H](OC(C)=O)/C=C/[C@@](C)(O)C[C@@H](C)C/C=C/[C@H]3[C@@H]1O (stereo partly drawn) [NSC305222] | -217.96%
35 | Cc1ccc(N=Nc2c(O)ccc3ccccc23)cc1 [NSC106296] | -44.71%
36 | O=C(c1ccccc1)C1OC12C(=O)Nc1c(Cl)cc(Cl)cc12 (stereo not drawn) [NSC635306] | -37.53%
37 | COc1cc2oc(=O)cc(C)c2cc1[N+](=O)[O-] [NSC299879] | -32.05%
38 | N#Cc1ccccc1NC(=O)C(=O)C(C(=O)c1ccccc1F)C1OC(=O)c2ccccc21 (stereo not drawn) [NSC640974] | -7.97%
39 | CN(C)c1ccc(/C=C2\C=Cc3ccccc32)cc1 [NSC80087] | -24.95%
40 | COC(=O)C1=CC(=O)C(C(=O)Nc2ccc(OC)cc2)C(c2ccccc2)O1 (stereo not drawn) [NSC634473] | -29.85%
41 | CC(=O)O[C@@H]1[C@@H](O)[C@H](O[C@H]2[C@H](OC(=O)[C@H]3CC[C@H]4[C@@H](C3)O[C@@]3(C[C@H](OC(=O)/C=C/c5ccccc5)[C@H](C)CO3)[C@]43CO3)O[C@H](C)[C@@H](O)[C@@H]2OC(C)=O)O[C@H](C)[C@H]1O [NSC328426] | -30.81%
42 | COC1C(C)OC(OC2CC(C)(O)Cc3cc4c(c(O)c32)C(=O)c2c(O)cc3c(c2C4=O)OC2OC3(C)C(O)C(N(C)C)C2O)C(OC)C1(C)OC (stereo not drawn) [NSC265450] | -83.48%
43 | COc1ccc(-c2cc(=O)c3c(OC)c(OC)c(OC)cc3o2)cc1 [NSC53908] | -32.76%
44 | CCOC(=O)/N=C(\N)SCc1ccccc1 [NSC622684] | -0.38%
45 | CCN(CC)CCCNc1ncc(C)c2[nH]c3ccncc3c12.O=C(O)/C=C\C(=O)O [NSC625331] | -26.39%
46 | NC(=O)c1cn([C@@H]2O[C@H](CO)[C@@H](O)[C@H]2O)c2ncnc(N)c12 [NSC65346] | -11.87%
47 | C=C(CN(C)C)C(=O)c1ccccc1Cl.Cl [NSC382007] | -43.42%
48 | COc1cc2c[n+](C)c3c4cc5c(cc4ccc3c2cc1OC)OCO5.[Cl-] [NSC146397] | -1.75%

Row | Compound | MEAN CpLDH INHIBITION (%)
49 | Cc1ccccc1OCC(COC(=O)Nc1ccccc1)OC(=O)Nc1ccccc1 (stereo not drawn) [NSC635824] | -3.02%
50 | Cc1c2ccncc2cc2c1[nH]c1ccccc12 [NSC87206] | -25.74%
51 | O=C(/C=C/c1c(O)ccc2ccccc12)c1cccc(O)c1 [NSC636786] | -25.27%
52 | CC(=O)C1=C(O)C2(O)C(=O)c3c(c(C)c4ccc(C)c(O)c4c3O)CC2C(N)C1=O.CCCCCCCCCCCCOS(=O)(=O)O (stereo not drawn) [NSC73495] | -99.50%
53 | C[C@H]1CCC/C=C/[C@@H]2C[C@H](O)C[C@H]2[C@H](O)/C=C/C(=O)O1 [NSC89671] | -22.45%
54 | Br.CCCCCC(CN1CCOCC1)C(=O)/C=C/c1ccccc1 (stereo not drawn) [NSC322069] | -28.89%
55 | CCOC(OCC)C(CC)[Se]c1ccccc1[N+](=O)[O-] (stereo not drawn) [NSC646200] | -24.52%
56 | O=C(CC(=O)c1ccccc1NC1=Cc2ccccc2C(=O)C1=O)C(=O)NC1=C(Cl)C(=O)c2ccccc2C1=O [NSC641245] | -19.61%
57 | COC(=O)C1(C)CCCC2(C)c3cc(OC)ccc3C(=O)C(Br)C12 (stereo not drawn) [NSC169600] | -28.27%
58 | COc1ccc(C2c3cc4c(c(OC)c3CC3OCC(=O)C32)OCO4)cc1OC (stereo not drawn) [NSC126727] | -5.88%
59 | C[C@H](CN(C)C)C(=O)c1ccccc1C(=O)O [NSC22992] | -3.61%
60 | Cc1nc(-c2cccnc2)sc1C(=O)/C=C/c1ccc(Cl)cc1Cl [NSC640580] | -13.66%
61 | COc1cccc(/C=N\NC(=O)C(C)SC(C)C(=O)N/N=C/c2cccc(OC)c2)c1 (stereo not drawn) [NSC56737] | -38.88%
62 | CC(C)C[C@H]1C(=O)N2CCC[C@H]2[C@]2(O)O[C@](NC(=O)[C@@H]3C=C4c5cccc6[nH]c(Br)c(c56)C[C@H]4N(C)C3)(C(C)C)C(=O)N12.CS(=O)(=O)O [NSC169774] | -107.83%
63 | Cc1c(Cl)cccc1NC(=O)/C=C/c1ccccc1 [NSC191392] | -18.93%
64 | CCN(CC)CCOc1ccccc1/C=C/c1noc2ccccc12.Cl [NSC601101] | -6.25%
65 | CC(C)(C)CC(C)(C)NCC(O)COc1ccc(C(C)(C)c2ccc(OCC(O)CNC(C)(C)CC(C)(C)C)cc2)cc1.Cl (stereo not drawn) [NSC145366] | -111.71%
66 | C[n+]1cc2cc(O)c(O)cc2c2ccc3cc(O)c(O)cc3c21.Cl.[Cl-].c1ccncc1 [NSC184403] | -44.28%
67 | C=C1CC(Cn2cc(Br)c(=O)[nH]c2=O)(c2ccc(-c3ccccc3)cc2)OC1=O (stereo not drawn) [NSC668260] | -9.25%
68 | CC12CC(Br)(Br)C(=O)C3C1CCCC32 [NSC624358] | -23.30%
69 | Cc1ccc(C)c(NC(=O)C(=O)C(C(=O)c2ccc3ccccc3c2)C2OC(=O)c3ccccc32)c1 (stereo not drawn) [NSC640985] | -66.15%
70 | O=C1C(C(O)(C(F)(F)F)C(F)(F)F)CCC1C(O)(C(F)(F)F)C(F)(F)F (stereo not drawn) [NSC664181] | -5.59%
71 | CCN(CC)CCOc1ccc(C(O)(Cc2ccc(OC)cc2)c2ccccc2)cc1 (stereo not drawn) [NSC19857] | -57.96%
72 | Nc1ccc2c(c1)S(=O)(=O)c1cc(N)ccc1-2 [NSC13966] | -21.73%
